Data from patent publication US8420606B2, “Method of utilizing physiological activity of rare saccharide and composition containing rare saccharide” (priority 2002, dated 2013).

Columns and labels:
[1] = test system: KG-1; test: blood-system cancer cell strain proliferation, Coulter Counter, KG1; format: cell-based; settings: 0.05-50 mM, 7 days, including the control
Procedure: (§1) (2) Method: Total 6 kinds of cell strains, i.e., Myeloid (HL-60, THP-1, KG-1), T-cell (MT-2), and B-Cell (Daudi, KS-1), and 3 kinds of rare saccharides (i.e., D-psicose, D-altrose, and D-allose), were employed. The culture medium and the cells were prepared to be 1 mL in total and 1×10^5 in number, respectively. Then, the cell number at each of fourth day and seventh day was counted by using a Coulter Counter. Each rare saccharide was added at concentrations of 0.05, 0.5, 5 and 50 mM, while D-glucose was used as a control.
(§2) Culture Medium: FBS 10% added RPMI1460
(§3) Cultivation Conditions: 37° C., 5% CO2
(§4) Cultivation Vessel: FALCON, MULTIWELL, 12 wells
(§5) Number of Cultivation Days: 7 days
(§6) Saccharides Concentration: 0.05, 0.5, 5, 50 mM

[2] = test system: KS-1; test: blood-system cancer cell strain proliferation, Coulter Counter, KS1; format: cell-based; settings: 0.05-50 mM, 7 days, D-glucose control
Procedure: as §1, §2, §3, §4, §5, §6

[3] = test system: OVCAR3 (ovary cancer) cells; test: cell cycle analysis by flow cytometer; format: cell-based, human; settings: D-allose 50 mM, cultured for 3 days; control 12.6%
Procedure: (2) Method: The cell cycle was analyzed by using a flow cytometer. Cells used here were OVCAR3 (ovary cancer) cells. 1) The cells were treated with trypsin to prepare a cell suspension liquid. 2) The cells were inaculated into a plastic tissue with a diameter of 100 mm and cultured for 24 hours (overnight) in a CO2 incubator. 3) Two groups of the cells, i.e., one with a rare saccharide (D-allose 50 mM) and the other with no rare saccharides (with D-glucose as a control), were cultured for 3 days. 4) The separated cells were washed twice with PBS(−). 5) After centrifugation, 3 mL of PBS(−) was added and stirred by pipetting. 6) 7 mL of 100% ethanol was added, followed by fixation at 4° C. for 2 hours. 7) The liquid was subjected to centrifugation at 1500 rpm for 5 minutes. 8) The separated cells were washed twice with cold PBS(−). 9) After centrifugation, 200 μg/mL of RNase was added, followed by incubation at 37° C. for 30 minutes. 10) 0.5 mL of PI (propidum iodide) was added, followed by incubation for 15 minutes. 11) The cell number was measured by using a flow cytometer.

[4] = test system: temporary eye ischemia model (rat); test: retina ischemia-reperfusion, glutamate by microdialysis; format: in vivo; settings: D-allose 200 mg/kg intravenous before the ischemia
Procedure: (1) Purpose: This Example 6 is intended to study an influence of D-allose upon the retina in a temporary eye ischemia model (rat). (2) Method: The temporary eye ischemia model was prepared by raising the intraocular pressure up to a level of about 120 mmHg. The model was subjected to ischemia for 45 minutes and then to reperfusion. The concentration of glutamate released in the ischemia-reperfusion process was measured by the microdialysis method.

[5] = influence of psicose upon hyperglycemia; format: in vivo, rat; settings: 0.5 g/kg intravenous; compared with deoxyglucose control
Procedure: IVGTT was conducted on 8-week old male SD rats by inserting a catheter through the jugular vein, injecting 50% glucose at intervals of 20 minutes to make a hyperglycemic state, and then injecting psicose and deoxyglucose. A rare saccharide was administrated to 1 rat, and deoxyglucose was administrated to 1 rat.
Perform intravenous injection (IV) at 0.5 g/kg (i.e., 0.5 g/1000 g=500 mg/1000 g=0.5 mg/g).
Prepare rare-saccharide and deoxyglucose solutions in concentration of 0.5 g/mL (i.e., 0.5 g/1000 ul=500 mg/1000 ul=0.5 mg/ul). Prepare 2 mL of solution for each concentration.
Intravenously inject 200 ul of the solution for a 200 g rat.
Intravenously inject 250 ul of the solution for a 250 g rat.
Inject 300 ul of physiological saline after the intravenous injection.
Collect 150 ul of blood sample.
Collect blood at 9 points in time, i.e., 0, 5, 10, 15, 20, 25, 30, 45 and 60 minutes.

Row | SMILES | KG1 proliferation inhibitory effect [1] | KS1 proliferation inhibitory effect [2] | KS1 proliferation inhibitory effect ([2]; listed as allose) | proportion of the cells in G2-M stage of the cell cycle [3] | glutamate concentration during the reperfusion [4] | glutamate concentration during the ischemia ([4]; 45 minutes ischemia, versus control) | blood sugar value in hyperglycemic state [5] | insulin concentration in hyperglycemic state [5]
1 | O=C[C@H](O)[C@H](O)[C@H](O)[C@H](O)CO [D-allose] | having the inhibitory effect | having the inhibitory effect | showed a cell proliferation inhibitory effect at 59 mM | 22.6% | completely inhibited | inhibited in comparison with that in the control |  | 
2 | O=C(CO)[C@H](O)[C@H](O)[C@H](O)CO [D-psicose] |  |  |  |  |  |  | reduced more quickly | an increase in the insulin secretion
